Test results reported in PMC7870626, “Neurotoxicity and underlying cellular changes of 21 mitochondrial respiratory chain inhibitors” (Archives of Toxicology, 2021).
Like-named read-outs stand apart in the source and are kept apart here.

Key:
LUHMES cells [1] = experiment: Intracellular ATP content after NeuriTox exposure; format: cell-based; conditions: Homo sapiens; NeuriTox exposure scheme, 24 h; read-out: LUHMES 24 h EC25 ATP (converted)
Procedure: The NeuriTox test was performed as previously described (Delp et al. [2018b]; Krug et al. [2013a]; Stiegler et al. [2011]). Briefly, cells differentiated for 48 h were re-seeded into 96-well plates at a density of 100,000 cells/cm^2 in DM without cAMP and GDNF, and treated 1 h after seeding for 24 h. Subsequently, multiple endpoints were determined, e.g., neurite outgrowth (i.e., NeuriTox test), resazurin reduction, intracellular ATP content, gene expression levels from TempO-Seq analysis, and proteasomal activity. For the 120 h exposure scenario, LUHMES cells were differentiated for another 3 days after reseeding before they were treated on day 5 (d5) and d7 by a half medium exchange. Endpoints were determined on d10 of differentiation.
Plates from the NeuriTox test were further used after imaging for determination of alternative endpoints. Intracellular ATP was determined as described earlier (Delp et al. [2019]). In brief, CellTiterGlo 2.0 assay mix (Promega) containing luciferase was added after imaging, and luminescence was recorded. For the determination of resazurin reduction, a 10 × resazurin stock solution was added after imaging to the medium (final resazurin concentration 2 µg/ml) (Delp et al. [2018a]). After 60 min incubation, resazurin fluorescence was recorded (ex: 530 nm, em: 590 nm). Background-corrected data was used for further analysis.

[2] = tested on: MRC complex (cI, cII or cIII); experiment: HepG2-based MRC complex assay in permeabilized cells (earlier study); format: cell-based; conditions: NeuriTox neurite EC25 relative to complex assay EC25 in permeabilized cells; respirometric data from HepG2-based assays ref van der Stel et al. 2020
HepG2 cells = experiment: HepG2-based respirometry, total cell respiration (earlier study); conditions: NeuriTox neurite EC25 relative to cell respiration EC25; respirometric data from HepG2-based assays ref van der Stel et al. 2020
U2OS cells = experiment: cells; format: cell-based; conditions: Homo sapiens; U2OS osteosarcoma cells, 24 h, luminescence of constitutively expressed luciferase; read-out: Cytotox EC25 U2OS (converted)
Procedure: A cell suspension of 100,000 cells/ml was prepared in assay medium, and white 384-well plates were filled with 30 µl/well cell suspension. Twenty-four hours after seeding, a dilution series of test compound, as well as positive and negative controls, were added to the cells. After 24 h exposure, the medium was removed, and 10 µl of Triton X-100 lysis buffer was added to each well. The luminescent signal was determined in a luminometer by injecting BDS Illuminate Mix and measuring the light emission. The Cytotox CALUX cell line constitutively expresses a high level of luciferase protein; the light emission is therefore proportional to the cell number of live cells, and its decrease can be used as measure of cytotoxicity. The light emission generated by cells exposed to vehicle control was set to 100%, and the luminescence of cells exposed to the positive control toxicant tributyltin acetate [100 µM] was set to 0%. The light output of the cells exposed to different concentrations of test compounds was scaled accordingly.

LUHMES cells [3] = format: cell-based, human; conditions: for log2FoldChange AARS: gene AARS; for log2FoldChange AARS / log2FoldChange AASDHPPT / log2FoldChange AATF / log2FoldChange ABCA1 / log2FoldChange ABCA6: vs 0.1% DMSO; for log2FoldChange AASDHPPT: gene AASDHPPT; for log2FoldChange AATF: gene AATF; for log2FoldChange ABCA1: gene ABCA1; for log2FoldChange ABCA6: gene ABCA6
Procedure: Cells were cultured and treated as described above for the NeuriTox assay. On d3, after 24 h treatment, culture medium was replaced by 33 µl/well 1 × Biospyder lysis buffer. After 15 min at room temperature, plates were sealed and frozen at -80 °C to complete lysis. Samples were analyzed at Bioclavis (Glasgow) using the TempO-Seq technique and the EU-ToxRisk v2.0 gene probe panel covering ca. 3000 genes (Yeakley et al. [2017]). All genes are listed in the supplementary excel file (containing also all gene regulations). Briefly, a 50 bp fragment of the target gene was amplified. The amplification step also introduced sample-specific barcodes. This allowed pooling of all samples and standard next-generation sequencing of the ensemble. Afterward, adapters were used to allocate the sequenced fragments to the correct samples. Finally, the alignment of all sequenced fragments (FASTQ files) for each sample to the collection of reference 50 bp oligonucleotides was performed for the quantification of reads per gene, also known as the read count values. In a pre-filtering step, samples with a total count < 0.2 million and genes with an average count < 1.5 were removed.
To correct for both read depth and RNA composition, the DESeq2′s median of ratios normalization was applied. The analysis of differentially expressed genes (DEG) of each treatment against the control group was done by the Wald test implemented in DESeq2/R (Love et al. [2014]), including an FDR correction for p-adjusted ≤ 0.05. […] A curve was fit through these concentration–response data to obtain EC10DEG. For comparability, all DEG data were normalized to a positive control. […] The EC10DEG was calculated using an established online open access BMC calculator (BMCeasy) (Krebs et al. [2020]).

SH-SY5Y cells = experiment: Mitochondrial membrane potential (rhodamine 123), KE2 assay; format: cell-based, human; conditions: for EC25: Homo sapiens, SH-SY5Y differentiated 6 days, treated 24 h, rhodamine-123, read-out: pEC25 MMP (concentration where MMP was reduced by 25%) (converted); for Ratios of EC25 KE4/KE2 MMP: NeuriTox neurite EC25 relative to SH-SY5Y MMP EC25
Procedure: Cells were plated at a cell density of 29,500 cells/cm^2 and handled as described above for the neurite SH-SY5Y degeneration. On d6 of differentiation, 50% of the medium was replaced by differentiation medium containing 2 µM Rhodamine 123 (ThermoFisher). After 45 min of preloading at 37 °C with 5% CO2 in darkness, the Rhodamine 123 solution was completely removed and cells were carefully washed once with 200 µl DMEM:F12. Subsequently, 50 µl differentiation medium per well were added followed by the addition of 50 µl/well of test compounds in medium. After 24 h of exposure to the test compounds, the nuclei were stained for 30 min with 20 µL of a solution containing 20 µM Hoechst 33342, and the images were then acquired with a 10 × objective lens using the ImageXpress® Micro (Molecular Devices) high content microplate imager. Nuclei were evaluated in the DAPI channel (excitation 377 ± 50 nm, emission 447 ± 60 nm), whereas Rhodamine 123 fluorescence was detected in the FITC channel (excitation 475 ± 34 nm, emission 536 ± 40 nm). Analysis of the Hoechst 33,342 and Rhodamine 123 fluorescence was performed using the MetaXpress® Software (Molecular Devices) with the Transfluor HT plug-in and the parameters nuclei (for Hoechst-33342) and integrated granule intensity (for Rhodamine 123). Mitochondrial membrane potential (MMP) was quantified as the total fluorescence intensity of Rhodamine 123 in relation to the number of Hoechst-stained nuclei.

proteasome = experiment: Proteasomal activity (KE3 assay) in LUHMES cells; format: cell-based, human; conditions: NeuriTox neurite EC25 relative to proteasomal activity EC25, LUHMES
Procedure: Activity of the proteasome was quantified as described in (Gutbier et al. [2018b]). Briefly, after exposure, culture medium was replaced by assay buffer containing a cell-permeable proteasomal substrate (MeOSuc-Gly-Leu-Phe-AMC, 25 µM (Bachem, Bubendorf, Switzerland) in HBSS). Its AMC-fluorescence (ex: 360 nm, em: 465 nm) increases with proteasomal activity and was monitored for 90 min. Background-corrected data were used for further analysis.

COc1cc2c(cc1OC)[C@@H]1C(=O)c3ccc4c(c3O[C@@H]1CO2)C=CC(C)(C)O4 [Deguelin]
EC25 (LUHMES cells [1]): 10 µM
Ratios of EC25 KE4/KE1 complex assay [2]: 250
Ratios of EC25 KE4/KE1 total respiration (HepG2 cells): 32
EC25 (U2OS cells): > 50.1 µM
Number of DEGs triggered (LUHMES cells [3]; 13 µM, 24 h, LUHMES): 325
Regulation of the 13 deguelin-sensitive genes (in words) (LUHMES cells [3]; LUHMES 24 h): 11 out of 13 of these genes were not significantly regulated up to 0.8 µM deguelin, but clearly upregulated at 3.25 µM
log2FoldChange AARS (LUHMES cells [3]; 0.05 µM, 24 h): -0.69 log2
log2FoldChange AASDHPPT (LUHMES cells [3]; 0.05 µM, 24 h): 0.63 log2
log2FoldChange AATF (LUHMES cells [3]; 0.05 µM, 24 h): -0.08 log2
log2FoldChange ABCA1 (LUHMES cells [3]; 0.05 µM, 24 h): -2.12 log2
log2FoldChange ABCA6 (LUHMES cells [3]; 0.05 µM, 24 h): 0.47 log2
EC25 (SH-SY5Y cells): 0.316 µM
Ratios of EC25 KE4/KE2 MMP (SH-SY5Y cells): 13
Ratios of EC25 KE4/KE3 proteasomal (proteasome): 0.7

Cc1ccccc1C(=O)Nc1cccc(OC(C)C)c1 [Mepronil]
EC25 (LUHMES cells [1]): > 100 µM
Ratios of EC25 KE4/KE1 complex assay [2]: > 5.0
EC25 (U2OS cells): > 100 µM
log2FoldChange AARS (LUHMES cells [3]; 0.20 µM, 24 h): 0.46 log2
log2FoldChange AASDHPPT (LUHMES cells [3]; 0.20 µM, 24 h): 0.19 log2
log2FoldChange AATF (LUHMES cells [3]; 0.20 µM, 24 h): 0.22 log2
log2FoldChange ABCA1 (LUHMES cells [3]; 0.20 µM, 24 h): 0.65 log2
log2FoldChange ABCA6 (LUHMES cells [3]; 0.20 µM, 24 h): 0.20 log2
EC25 (SH-SY5Y cells): 5.01 µM
Ratios of EC25 KE4/KE3 proteasomal (proteasome): > 0.8

Cc1nc(C(F)(F)F)c(C(=O)Nc2c(Br)cc(OC(F)(F)F)cc2Br)s1 [Thifluzamide]
EC25 (LUHMES cells [1]): 20 µM
Ratios of EC25 KE4/KE1 complex assay [2]: 2.5
Ratios of EC25 KE4/KE1 total respiration (HepG2 cells): < 2
EC25 (U2OS cells): 20 µM
log2FoldChange AARS (LUHMES cells [3]; 0.15 µM, 24 h): -0.98 log2
log2FoldChange AASDHPPT (LUHMES cells [3]; 0.15 µM, 24 h): 0.89 log2
log2FoldChange AATF (LUHMES cells [3]; 0.15 µM, 24 h): -0.41 log2
log2FoldChange ABCA1 (LUHMES cells [3]; 0.15 µM, 24 h): -0.76 log2
log2FoldChange ABCA6 (LUHMES cells [3]; 0.15 µM, 24 h): 1.03 log2
EC25 (SH-SY5Y cells): > 10 µM
Ratios of EC25 KE4/KE3 proteasomal (proteasome): 1.1

CCOCCc1ccc(OCCN=c2[nH]cnc(CC)c2Cl)c(C)c1C [Pyrimidifen]
EC25 (LUHMES cells [1]): 20 µM
Ratios of EC25 KE4/KE1 complex assay [2]: 15850
Ratios of EC25 KE4/KE1 total respiration (HepG2 cells): 1260
EC25 (U2OS cells): 100 µM
log2FoldChange AARS (LUHMES cells [3]; 0.08 µM, 24 h): -0.45 log2
log2FoldChange AASDHPPT (LUHMES cells [3]; 0.08 µM, 24 h): 0.72 log2
log2FoldChange AATF (LUHMES cells [3]; 0.08 µM, 24 h): -0.0132 log2
log2FoldChange ABCA1 (LUHMES cells [3]; 0.08 µM, 24 h): -1.62 log2
log2FoldChange ABCA6 (LUHMES cells [3]; 0.08 µM, 24 h): 0.65 log2
EC25 (SH-SY5Y cells): 0.794 µM
Ratios of EC25 KE4/KE2 MMP (SH-SY5Y cells): 21
Ratios of EC25 KE4/KE3 proteasomal (proteasome): 1.1

CC1=C(C(=O)Nc2ccccc2)SCCO1 [Carboxin]
EC25 (LUHMES cells [1]): > 100 µM
Ratios of EC25 KE4/KE1 complex assay [2]: 32
Ratios of EC25 KE4/KE1 total respiration (HepG2 cells): < 8
EC25 (U2OS cells): > 100 µM
log2FoldChange AARS (LUHMES cells [3]; 0.20 µM, 24 h): -0.12 log2
log2FoldChange AASDHPPT (LUHMES cells [3]; 0.20 µM, 24 h): 0.26 log2
log2FoldChange AATF (LUHMES cells [3]; 0.20 µM, 24 h): 0.0462 log2
log2FoldChange ABCA1 (LUHMES cells [3]; 0.20 µM, 24 h): -0.37 log2
log2FoldChange ABCA6 (LUHMES cells [3]; 0.20 µM, 24 h): 0.78 log2
EC25 (SH-SY5Y cells): 1.58 µM
Ratios of EC25 KE4/KE2 MMP (SH-SY5Y cells): 48
Decrease of the MMP reached (SH-SY5Y cells; SH-SY5Y, 24 h, non-cytotoxic concentrations): at least 50%
Ratios of EC25 KE4/KE3 proteasomal (proteasome): < 0.8

Cc1ccc(-c2c(Cl)nc(C#N)n2S(=O)(=O)N(C)C)cc1 [Cyazofamid]
EC25 (LUHMES cells [1]): > 50.1 µM
Ratios of EC25 KE4/KE1 complex assay [2]: < 5
EC25 (U2OS cells): 100 µM
log2FoldChange AARS (LUHMES cells [3]; 0.00781 µM, 24 h): -1.30 log2
log2FoldChange AASDHPPT (LUHMES cells [3]; 0.00781 µM, 24 h): 1.09 log2
log2FoldChange AATF (LUHMES cells [3]; 0.00781 µM, 24 h): -0.24 log2
log2FoldChange ABCA1 (LUHMES cells [3]; 0.00781 µM, 24 h): -1.98 log2
log2FoldChange ABCA6 (LUHMES cells [3]; 0.00781 µM, 24 h): 0.44 log2
EC25 (SH-SY5Y cells): 0.2 µM
Ratios of EC25 KE4/KE2 MMP (SH-SY5Y cells): 225

COc1cc(CNC(=O)CCCC/C=C/C(C)C)ccc1O [Capsaicin]
EC25 (LUHMES cells [1]): > 50.1 µM
EC25 (U2OS cells): 63.1 µM
log2FoldChange AARS (LUHMES cells [3]; 0.10 µM, 24 h): -0.12 log2
log2FoldChange AASDHPPT (LUHMES cells [3]; 0.10 µM, 24 h): 0.45 log2
log2FoldChange AATF (LUHMES cells [3]; 0.10 µM, 24 h): -0.07 log2
log2FoldChange ABCA1 (LUHMES cells [3]; 0.10 µM, 24 h): -0.65 log2
log2FoldChange ABCA6 (LUHMES cells [3]; 0.10 µM, 24 h): -2.67 log2
EC25 (SH-SY5Y cells): > 10 µM
